Where a SMILES comes first, the peptide text is derived from it.
How the values were obtained:
Assay type in all cases: cell-based
[1] = tested on: Serratia marcescens ATCC 17991; assay: Inhibition zone assay; set-up: key: --: "-" means that no inhibition has been found
[2] = tested on: Streptococcus pyogenes NCTC 8193; assay: Inhibition zone assay; set-up: key: --: "-" means that no inhibition has been found; conditions: I 10 ul
[3] = tested on: Xanthomonas campestris pv. oryzae IRN 235; set-up: key: --: "-" means that no inhibition has been found
[4] = tested on: Yersinia enterocolitica PGS C-1106; assay: Inhibition zone assay; set-up: key: --: "-" means that no inhibition has been found; conditions: * synthetic ApidIa and heattreated immune lymph instead of Bee6 and native immune lymph
[5] = tested on: Bordetella bronchiseptica ATCC 19395; assay: Inhibition zone assay; set-up: key: --: "-" means that no inhibition has been found; conditions: I and B 10 ul, L 5 ug
[6] = tested on: ATCC 17991; assay: Inhibition zone assay; set-up: key: --: "-" means that no inhibition has been found; conditions: Salmonella marcescens ATCC 17991
[7] = tested on: Streptococcus B CDC 55 460; assay: Inhibition zone assay; set-up: key: --: "-" means that no inhibition has been found; conditions: I 10 ul
[8] = tested on: Escherichia coli NCTC 11601; assay: Inhibition zone assay; set-up: key: --: "-" means that no inhibition has been found; conditions: I 10 ul
[9] = tested on: Xanthomonas campestris pv. graminis NCPPB 2700; assay: Inhibition zone assay; set-up: key: --: "-" means that no inhibition has been found; conditions: I and B 10 ul, L 5 ug
[10] = tested on: Xanthomonas maltophilia JCM1977; assay: Inhibition zone assay; set-up: key: --: "-" means that no inhibition has been found; conditions: Xanthomonas maltophilia JCM1977 (Tables 2 and 3)
[11] = tested on: E. coli NCTC 9001; assay: Killing assay, growth inhibition in liquid medium; conditions: purified factors in PBS (7.5% LPG), 10^3 cells, optical density at 630 nm
Experimental: Bacterial development was monitored by measuring the optical densities and by plate counts. […] The purified factors resuspended in PBS (7.5% LPG) (FIG. 4A, 4B, 4C, 4D) were inoculated with 10^4 cells (C) or 10^3 cells (A, B and D) . Bacterial development was calculated by measuring the optical densities at 630 nm.

[12] = tested on: Pseudomonas paucimobilis ATCC 29837; assay: Inhibition zone assay; conditions: L 5 ug
[13] = tested on: S. cerevisiae; assay: Growth-inhibition zone assay, first screening
Experimental: (§1) Whole lymph or purified components, resuspended in PBS to a final volume equal to the starting material (heated lymph), was applied in 3 mm wells on agar plates seeded with the test organisms. Antibacterial activity was determined by measuring the growth-inhibition zones (in mm).

[14] = tested on: D. hansenii; assay: Growth-inhibition zone assay, first screening
Experimental: as §1

[15] = tested on: Enterobacter agglomerans ICPB 3423; assay: Inhibition zone assay; set-up: key: --: "-" means that no inhibition has been found

CC[C@H](C)[C@H](NC(=O)[C@H](CCCCN)NC(=O)[C@@H]1CCCN1C(=O)[C@H](CC(N)=O)NC(=O)[C@H](Cc1ccccc1)NC(=O)[C@@H]1CCCN1C(=O)CNC(=O)[C@H](CCC(N)=O)NC(=O)CNC(=O)[C@@H]1CCCN1C(=O)[C@H](Cc1ccccc1)NC(=O)[C@@H](NC(=O)[C@@H]1CCCN1C(=O)[C@H](Cc1ccccc1)NC(=O)[C@@H]1CCCN1C(=O)[C@H](CCCNC(=N)N)NC(=O)[C@H](CCCNC(=N)N)NC(=O)CNC(=O)[C@@H]1CCCN1C(=O)[C@H](CCC(N)=O)NC(=O)[C@@H]1CCCN1C(=O)[C@@H](NC(=O)[C@H](CC(N)=O)NC(=O)[C@@H]1CCCN1C(=O)[C@H](CC(C)C)NC(=O)[C@@H]1CCCN1C(=O)[C@@H](NC(=O)[C@@H](N)Cc1ccc(O)cc1)C(C)C)C(C)C)[C@@H](C)O)C(=O)N[C@@H](CCCCN)C(=O)N[C@@H](Cc1c[nH]c2ccccc12)C(=O)N1CCC[C@H]1C(=O)N[C@@H](CCC(N)=O)C(=O)NCC(=O)N[C@@H](Cc1ccc(O)cc1)C(=O)O [bee 9] (H-YVPLPNVPQPGRRPFPTFPGQGPFNPKIKWPQGY-OH)
diameter of growth-inhibition zone [1]: --
diameter of growth-inhibition zone [2]: --
diameter of growth-inhibition zone [3]: --
diameter of growth-inhibition zone [4]: --
diameter of growth-inhibition zone [5]: --
diameter of growth-inhibition zone [6]: --
diameter of growth-inhibition zone [7]: --
diameter of growth-inhibition zone [8]: --
diameter of growth-inhibition zone [9]: --
diameter of growth-inhibition zone [10]: --
activity, growth inhibition in liquid medium [11]: neither susceptible
diameter of growth-inhibition zone [12]: 4 mm
susceptibility of eucaryote strain [13]: resistant
susceptibility of eucaryote strain [14]: resistant
diameter of growth-inhibition zone [15]: --
